One assay concerns mIgG F22-4. The format is binding, murine.
The test system of the next assay is mIgG D15-7. The format is binding, murine.
The subject of another assay is mIgG A2-1. The format is binding, murine.
A further assay has as its system mIgG E4-1. The format is binding, murine.
The next assay relates to mIgG C1-7. The format is binding, murine.
Assay [1] has as its system mIgG F22-4, D15-7, A2-1, E4-1, C1-7. The format is binding, murine.
The next assay relates to LPS 2a. The arrangement: species or system mice. Conditions: in vivo.

Several values for one entry are separate records, joined by “and”; a condition that tells them apart may be missing. Equal entries are not always repeated.

For orientation: IC50 means the concentration at which inhibition is half-maximal. Low values mean inhibition by little substance, high ones a need for much substance.

On to `CO[C@@H]1O[C@@H](C)[C@H](O)[C@@H](O)[C@H]1O[C@@H]1O[C@H](CO)[C@@H](O)[C@H](O[C@@H]2O[C@@H](C)[C@H](O[C@H]3O[C@H](CO)[C@@H](O)[C@H](O)[C@H]3O)[C@@H](O[C@@H]3O[C@@H](C)[C@H](O)[C@@H](O)[C@H]3O)[C@H]2O)[C@H]1NC(C)=O` [B(E)CDA], for which the IC50 in the assay with mIgG F22-4 was determined as 2.5 µM; in the assay on mIgG D15-7, 240 µM; in the assay with mIgG A2-1 it was 350 µM; in the assay on mIgG E4-1 it was 75 µM; with mIgG C1-7 it was 400 µM.
In the case of `COC1OC(C)C(OC2OC(CO)C(O)C(O)C2O)C(OC2OC(C)C(O)C(O)C2OC2OC(C)C(O)C(O)C2OC2OC(CO)C(O)C(OC3OC(C)C(OC4OC(CO)C(O)C(O)C4O)C(OC4OC(C)C(O)C(O)C4O)C3O)C2NC(C)=O)C1O` (stereo not shown) [B(E)CDA B(E)C], the IC50 worked out at 0.22 µM with mIgG F22-4; 60.8 µM in the assay with mIgG D15-7; 12.9 µM in the assay with mIgG A2-1; 12 µM in the assay with mIgG E4-1; 242 µM in the assay on mIgG C1-7. Moreover, the “improving Ab binding by a factor” value in the assay with mIgG D15-7 and in the assay with mIgG E4-1 was about 4 throughout. The “gain in recognition / binding improvement by a factor” value in the assay with mIgG A2-1 is recorded as about 25.
`COC1OC(C)C(OC2OC(CO)C(O)C(O)C2O)C(OC2OC(C)C(O)C(O)C2OC2OC(C)C(O)C(O)C2OC2OC(CO)C(O)C(OC3OC(C)C(OC4OC(CO)C(O)C(O)C4O)C(OC4OC(C)C(O)C(O)C4OC4OC(C)C(O)C(O)C4OC4OC(CO)C(O)C(O)C4NC(C)=O)C3O)C2NC(C)=O)C1O` [DA B(E)CDA B(E)C, Methyl (2-acetamido-2-deoxy-β-D-glucopyranosyl)-(1→2)-(α-L-rhamnopyranosyl)-(1→2)-(α-L-rhamnopyranosyl)-(1→3)-[α-D-glucopyranosyl-(1→4)]-(α-L-rhamnopyranosyl)-(1→3)-(2-acetamido-2-deoxy-β-D-glucopyranosyl)-(1→2)-(α-L-rhamnopyranosyl)-(1→2)-(α-L-rhamnopyranosyl)-(1→3)-[α-D-glucopyranosyl-(1→4)]-α-L-rhamnopyranoside]: the IC50 was found to be 5 µM in the assay on mIgG F22-4; 11.9 µM with mIgG D15-7; 3 µM with mIgG A2-1; 4.4 µM in the assay with mIgG E4-1; 19 µM in the assay on mIgG C1-7. The “fold increase in binding” value in the assay on mIgG A2-1 was found to be 100 fold.
Regarding `COC1OC(C)C(OC2OC(CO)C(O)C(O)C2O)C(OC2OC(C)C(O)C(O)C2OC2OC(C)C(O)C(O)C2OC2OC(CO)C(O)C(O)C2NC(C)=O)C1O` (stereo not shown) [DAB(E)C], the concentration for half-maximal inhibition (IC50) with mIgG F22-4, in the assay on mIgG D15-7, with mIgG A2-1, with mIgG E4-1 and in the assay on mIgG C1-7 was over 1000 µM in each case. For the same compound, the “recognition (binding) by the mIgG” value in assay [1] is given as “absence of recognition”.
`COC1OC(C)C(OC2OC(CO)C(O)C(O)C2O)C(OC2OC(C)C(O)C(O)C2O)C1O` (stereo not shown) [B(E)C]: the IC50 with mIgG F22-4, in the assay with mIgG D15-7, in the assay with mIgG A2-1, with mIgG E4-1 and in the assay with mIgG C1-7 was over 1000 µM each time.
On to `CO[C@@H]1O[C@@H](C)[C@H](O)[C@@H](O)[C@H]1O[C@@H]1O[C@@H](C)[C@H](O)[C@@H](O)[C@H]1O[C@@H]1O[C@H](CO)[C@@H](O)[C@H](O[C@@H]2O[C@@H](C)[C@H](O[C@H]3O[C@H](CO)[C@@H](O)[C@H](O)[C@H]3O)[C@@H](O)[C@H]2O)[C@H]1NC(C)=O` [(E)CDAB, Methyl α-D-glucopyranosyl-(1→4)-α-L-rhamnopyranosyl-(1→3)-2-acetamido-2-deoxy-β-D-glucopyranosyl-(1→2)-α-L-rhamnopyranosyl-(1→2)-α-L-rhamnopyranoside], for which the IC50 is 354 µM with mIgG F22-4; over 1000 µM in the assay with mIgG D15-7; over 1000 µM in the assay with mIgG A2-1; over 1000 µM in the assay with mIgG E4-1; over 1000 µM with mIgG C1-7.
Take “TT: tetanus toxoid alone (140 μg/mice/injection), control [reference compound]”: in the assay on LPS 2a, the “Anti-LPS 2a antibody titer, individual mouse (1)” value is listed as 0 and the “Anti-LPS 2a antibody titer, individual mouse (2)” value is on record as 0.
As to `CO[C@@H]1O[C@H](CO)[C@@H](O)[C@H](O[C@@H]2O[C@@H](C)[C@H](O[C@H]3O[C@H](CO)[C@@H](O)[C@H](O)[C@H]3O)[C@@H](O[C@@H]3O[C@@H](C)[C@H](O)[C@@H](O)[C@H]3O)[C@H]2O)[C@H]1NC(C)=O` [B(E)CD, Methyl α-L-rhamnopyranosyl-(1→3)-[α-D-glucopyranosyl-(1→4)]-α-L-rhamnopyranosyl-(1→3)-2-acetamido-2-deoxy-β-D-glucopyranoside], the IC50 in the assay with mIgG F22-4 is 5 µM; in the assay with mIgG D15-7, 198 µM; in the assay with mIgG A2-1, over 1000 µM; with mIgG E4-1, 87 µM; in the assay with mIgG C1-7, over 1000 µM.
As to `COC1OC(C)C(O)C(O)C1OC1OC(CO)C(O)C(OC2OC(C)C(OC3OC(CO)C(O)C(O)C3O)C(O)C2O)C1NC(C)=O` (stereo not shown) [(E)CDA], the IC50 in the assay with mIgG F22-4 was 181 µM; in the assay on mIgG D15-7, over 1000 µM; in the assay with mIgG A2-1, over 1000 µM; with mIgG E4-1 it was over 1000 µM; in the assay with mIgG C1-7 it was over 1000 µM.
Consider `CO[C@@H]1O[C@H](CO)[C@@H](O)[C@H](O[C@@H]2O[C@@H](C)[C@H](O[C@H]3O[C@H](CO)[C@@H](O)[C@H](O)[C@H]3O)[C@@H](O[C@@H]3O[C@@H](C)[C@H](O)[C@@H](O)[C@H]3O[C@@H]3O[C@@H](C)[C@H](O)[C@@H](O)[C@H]3O)[C@H]2O)[C@H]1NC(C)=O` [AB(E)CD, Methyl α-L-rhamnopyranosyl-(1→2)-α-L-rhamnopyranosyl-(1→3)-[α-D-glucopyranosyl-(1→4)]-α-L-rhamnopyranosyl-(1→3)-2-acetamido-2-deoxy-β-D-glucopyranoside], for which the IC50 in the assay with mIgG F22-4 was 21 µM and 21.6 µM; in the assay with mIgG D15-7 it was 490 µM; in the assay with mIgG A2-1, 378 µM; in the assay with mIgG E4-1, 287 µM and 288 µM; with mIgG C1-7 it was 734 µM.
